Assay [1] concerns the target T1, trypsin-activated recombinant human renin (Homo sapiens, UniProt P00797).
T1 sequence (P00797 67-406): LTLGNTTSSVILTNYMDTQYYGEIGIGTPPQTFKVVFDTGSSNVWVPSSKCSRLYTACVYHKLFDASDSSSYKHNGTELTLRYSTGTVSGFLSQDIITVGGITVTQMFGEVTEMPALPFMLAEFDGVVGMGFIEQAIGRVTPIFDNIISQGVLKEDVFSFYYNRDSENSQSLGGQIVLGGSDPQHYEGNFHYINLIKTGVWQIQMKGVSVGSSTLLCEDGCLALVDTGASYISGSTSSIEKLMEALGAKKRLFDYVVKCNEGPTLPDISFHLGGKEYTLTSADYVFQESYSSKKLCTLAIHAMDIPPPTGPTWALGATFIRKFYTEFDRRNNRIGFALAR
The experiment in a line: In vitro renin inhibition, fluorescence of internally quenched peptide substrate. The class given is biochemical. The note with it: fluorogenic peptide substrate, pH 7.0, rt. How it is done:
The sequence of this peptide corresponds to the sequence of human angiotensinogen. The following test protocol was used. All reactions were carried out in a flat bottom white opaque microtiter plate. A 4 μL aliquot of 400 μM renin substrate (DABCYL-γ-[…]) in 192 μl, assay buffer (50 mM BES, 150 mM NaCl, 0.25 mg/mL bovine serum albumin, pH7.0) was added to 4 μl, of test compound in DMSO at various concentrations ranging from 10 μM to 1 nM final concentrations. Next, 100 μL of trypsin-activated recombinant human renin (final enzyme concentration of 0.2-2 nM) in assay buffer was added, and the solution was mixed by pipetting. The increase in fluorescence at 495 nm (excitation at 340 nm) was measured for 60-360 minutes at rt using a Perkin-Elmer Fusion microplate reader. The slope of a linear portion of the plot of fluorescence-increase as a function of time was then determined, and the rate is used for calculating percent inhibition in relation to uninhibited control. […] (Wang G. T. et al. Anal. Biochem. 1993, 210, 351; Nakamura, N. et al. J. Biochem. (Tokyo) 1991, 109, 741; Murakami, K. et al. Anal Biochem. 1981, 110, 232).

The target in assay [2] is T2, plasma renin activity (PRA) (Homo sapiens, UniProt P00797).
T2 construct: pooled mixed-gender human plasma stabilized with EDTA; from tissue; host or cells: pooled mixed-gender human plasma (EDTA)
T2 sequence (P00797 67-406): T1 sequence (P00797 67-406)
The experiment in a line: In vitro plasma renin activity (PRA) in human plasma, angiotensin I radioimmunoassay. It counts as biochemical. The settings on record: IC50 in pooled human plasma, 37° C., 90 min. The method, then: Incubations mixtures contained in the final volume of 250 μL 95.5 mM N,N-bis(2-hydroxyethyl)-2-aminoethanesulfonic acid, pH 7.0, 8 mM EDTA, 0.1 mM neomycin sulfate, 1 mg/mL sodium azide, 1 mM phenylmethanesulfonyl fluoride, 2% DMSO and 87.3% of pooled mixed-gender human plasma stabilized with EDTA. For plasma batches with low PRA (less than 1 ng/ml/hr) ˜2 pM of recombinant human renin was added to achieve PRA of 3-4 ng/ml/hr. The cleavage of endogenous angiotensinogen in plasma was carried out at 37° C. for 90 min and the product angiotensin I was measured by competitive radioimmunoassay using DiaSorin PRA kit.

Assay [3] deals with double transgenic rats engineered to express human renin and human angiotensinogen. The experiment in a line: In vivo blood pressure by telemetry in double transgenic rats. Also noted: species or system rat. The settings on record: 6-week-old dTGRs, oral, 4 consecutive days, dosage of 3-10 mg/kg. How it is done:
Double Transgenic Rats: The efficacy of the renin inhibitors can also be evaluated in vivo in double transgenic rats engineered to express human renin and human angiotensinogen (Bohlender J, Fukamizu A, Lippoldt A, Nomura T, Dietz R, Menard J, Murakami K, Luft F C, Ganten D. High human renin hypertension in transgenic rats. Hypertension 1997, 29, 428-434).
Experiments were conducted in 6-week-old double transgenic rats (dTGRs). The model has been described in detail earlier. […] The human angiotensinogen construct made up the entire human angiotensinogen gene (5 exons and 4 introns), with 1.3 kB of 5′-flanking and 2.4 kB of 3′-flanking sequences. The rats were purchased from RCC Ltd (Füllinsdorf, Switzerland). Radio telemetry transmitters were surgically implanted at 4 weeks of age. The telemetry system provided 24-h recordings of systolic, mean, diastolic arterial pressure (SAP, MAP, DAP, respectively) and heart rate (HR). Beginning on day 42, animals were transferred to telemetry cages. A 24 h telemetry reading was obtained. Rats were then dosed orally on the following 4 consecutive days (days 43-46). The rats were monitored continuously and allowed free access to standard 0.3%-sodium rat chow and drinking water.

Experimental findings from patent US8580823B2, “Piperidine renin inhibitors” (Vitae Pharmaceuticals, Inc., priority 2006, dated 2013) are described below.

pIC50: −log10 of the molar value. Some results are limits rather than exact numbers.

`CCN[C@H](CNC(=O)N1CCC[C@@H]([C@@H](OCCNC(=O)OC)c2cc(Cl)ccc2C)C1)C[C@H]1CCCOC1` [Compound 12, methyl 2-((R)-(5-chloro-2-methylphenyl)((R)-1-((S)-2-(ethylamino)-3-((R)-tetrahydro-2H-pyran-3-yl)propylcarbamoyl)piperidin-3-yl)methoxy)ethylcarbamate]: in assay [1], the pIC50 is above 8.00.
For `CN[C@H](CNC(=O)N1CCC[C@@H]([C@H](OCCNC(=O)OC)c2cc(Cl)ccc2C)C1)C[C@H]1CCCOC1` [Compound 11, methyl 2-((S)-(5-chloro-2-methylphenyl)((R)-1-((S)-2-(methylamino)-3-((R)-tetrahydro-2H-pyran-3-yl)propylcarbamoyl)piperidin-3-yl)methoxy)ethylcarbamate], the pIC50 in assay [2] and in assay [1] was above 8.00 in each case.
For `CN[C@H](CNC(=O)N1CCC[C@@H]([C@@H](OCCNC(=O)OC)c2cc(F)cc(F)c2)C1)C[C@H]1CCCOC1` [Compound 10, methyl 2-((R)-(3,5-difluorophenyl)((R)-1-((S)-2-(methylamino)-3-((R)-tetrahydro-2H-pyran-3-yl)propylcarbamoyl)piperidin-3-yl)methoxy)ethylcarbamate], the pIC50 in assay [2] and in assay [1] was above 8.00 in each case.
Turning to `CN[C@H](CNC(=O)N1CCC[C@@H]([C@@H](OCCNC(=O)OC)c2cccc(Cl)c2)C1)C[C@H]1CCCOC1` [Compound 7, methyl 2-((R)-(3-chlorophenyl)((R)-1-((S)-2-(methylamino)-3-((R)-tetrahydro-2H-pyran-3-yl)propylcarbamoyl)piperidin-3-yl)methoxy)ethylcarbamate], in assay [3], the “effect in lowering blood pressures (mean arterial blood pressure, FIG. 2)” value is on record as “significant effect in lowering blood pressures”.
Consider `CN[C@H](CNC(=O)N1CCC[C@@H]([C@@H](OCCNC(=O)OC)c2cc(F)cc(Cl)c2)C1)C[C@H]1CCCOC1` [Compound 9, methyl 2-((R)-(3-chloro-5-fluorophenyl)((R)-1-((S)-2-(methylamino)-3-((R)-tetrahydro-2H-pyran-3-yl)propylcarbamoyl)piperidin-3-yl)methoxy)ethylcarbamate], for which the figures for the pIC50 in assay [2] and in assay [1] were above 8.00 and above 9.00, respectively.
